Measurements published in PubChem BioAssay AID1259407 (Chemical Carcinogenesis Research Information System (CCRIS), 2018).
Calls of active or inactive are those of the source. The rule behind the calls is not given here.

Test system: CCRIS mutagenicity, Ames/micronucleus/aberration tests
Test: CCRIS mutagenicity studies

Q: What does the source list for C=CC#N?
A: mutagenic call (End Point: IN VITRO CHROMOSOMAL ABERRATIONS, Test System: CHL CELLS, Metabolic Activation: RAT, LIVER, S-9, SODIUM PHENOBARBITAL AND 5,6-BENZOFLAVONE): active; positive (structural changes); mutagenic call (End Point: IN VIVO CHROMOSOMAL ABERRATIONS, Test System: BONE MARROW CELLS, Species: MOUSE, Strain/Sex: C57B1/6/MALE, Route: IP INJECTION (ONCE)): inactive; negative; mutagenic call (Test System: AMES SALMONELLA TYPHIMURIUM, Strain/Indicator: TA97, Metabolic Activation: HAMSTER LIVER S-9, AROCLOR 1254 (10%), Method: PREINCUBATION): inactive; negative; mutagenic call (Test System: AMES SALMONELLA TYPHIMURIUM, Strain/Indicator: TA97, Metabolic Activation: NONE, Method: PREINCUBATION): inactive; negative; mutagenic call (Test System: AMES SALMONELLA TYPHIMURIUM, Strain/Indicator: TA97, Metabolic Activation: NONE, Method: STANDARD PLATE): inactive; negative; mutagenic call (Test System: AMES SALMONELLA TYPHIMURIUM, Strain/Indicator: TA97, Metabolic Activation: RAT LIVER S-9, AROCLOR 1254 (10%), Method: PREINCUBATION): inactive; negative; mutagenic call (Test System: AMES SALMONELLA TYPHIMURIUM, Strain/Indicator: TA97, Metabolic Activation: RAT, LIVER, S-9, AROCLOR 1254, Method: STANDARD PLATE): inactive; negative; mutagenic call (Test System: AMES SALMONELLA TYPHIMURIUM, Strain/Indicator: TA97, Metabolic Activation: S-9, Method: STANDARD PLATE): inactive; negative; mutagenic call (Test System: AMES SALMONELLA TYPHIMURIUM, Strain/Indicator: TA98, Metabolic Activation: HAMSTER LIVER S-9, AROCLOR 1254 (10%), Method: PREINCUBATION): inactive; negative; mutagenic call (Test System: AMES SALMONELLA TYPHIMURIUM, Strain/Indicator: TA98, Metabolic Activation: NONE, Method: PREINCUBATION): inactive; negative; mutagenic call (Test System: AMES SALMONELLA TYPHIMURIUM, Strain/Indicator: TA98, Metabolic Activation: NONE, Method: STANDARD PLATE): inactive; negative; mutagenic call (Test System: AMES SALMONELLA TYPHIMURIUM; Strain/Indicator: TA98; Metabolic Activation: RAT LIVER S-9, AROCLOR 1254 910%), Method: PREINCUBATION): inactive; negative; mutagenic call (Test System: AMES SALMONELLA TYPHIMURIUM, Strain/Indicator: TA98, Metabolic Activation: RAT, LIVER, S-9, AROCLOR 1254, Method: STANDARD PLATE): inactive; negative; mutagenic call (Test System: AMES SALMONELLA TYPHIMURIUM, Strain/Indicator: TA98, Metabolic Activation: S-9, Method: STANDARD PLATE): inactive; negative; mutagenic call (Test System: AMES SALMONELLA TYPHIMURIUM, Strain/Indicator: TA100, Metabolic Activation: HAMSTER LIVER S-9, AROCLOR 1254 (5%), Method: PREINCUBATION): inactive; negative; mutagenic call (Test System: AMES SALMONELLA TYPHIMURIUM, Strain/Indicator: TA100, Metabolic Activation: HAMSTER LIVER S-9, AROCLOR 1254 (5 OR 10%), Method: PREINCUBATION): inactive; negative; mutagenic call (Test System: AMES SALMONELLA TYPHIMURIUM, Strain/Indicator: TA100, Metabolic Activation: HAMSTER LIVER S-9, AROCLOR 1254 (10% OR 30%), Method: PREINCUBATION): active; positive; mutagenic call (Test System: AMES SALMONELLA TYPHIMURIUM, Strain/Indicator: TA100, Metabolic Activation: HAMSTER LIVER S-9, AROCLOR 1254 (10%), Method: PREINCUBATION): active; positive; mutagenic call (Test System: AMES SALMONELLA TYPHIMURIUM, Strain/Indicator: TA100, Metabolic Activation: HAMSTER LIVER S-9, AROCLOR 1254 (30%), Method: PREINCUBATION): active; positive; mutagenic call (Test System: AMES SALMONELLA TYPHIMURIUM, Strain/Indicator: TA100, Metabolic Activation: HAMSTER, LIVER, S-9, AROCLOR 1254 (5, 10, 20%), Method: PREINCUBATION): active; positive; mutagenic call (Test System: AMES SALMONELLA TYPHIMURIUM, Strain/Indicator: TA100, Metabolic Activation: HAMSTER, LIVER, S-9, AROCLOR 1254 (20%), Method: PREINCUBATION): active; positive; mutagenic call (Test System: AMES SALMONELLA TYPHIMURIUM, Strain/Indicator: TA100, Metabolic Activation: NONE, Method: PREINCUBATION): inactive; negative; mutagenic call (Test System: AMES SALMONELLA TYPHIMURIUM, Strain/Indicator: TA100, Metabolic Activation: NONE, Method: STANDARD PLATE): inactive; negative; mutagenic call (Test System: AMES SALMONELLA TYPHIMURIUM, Strain/Indicator: TA100, Metabolic Activation: RAT LIVER S-9, AROCLOR 1254 (5, 10, OR 30%), Method: PREINCUBATION): inactive; negative; mutagenic call (Test System: AMES SALMONELLA TYPHIMURIUM, Strain/Indicator: TA100, Metabolic Activation: RAT LIVER S-9, AROCLOR 1254 (5/%, 10% OR 30%), Method: PREINCUBATION): inactive; negative; mutagenic call (Test System: AMES SALMONELLA TYPHIMURIUM, Strain/Indicator: TA100, Metabolic Activation: RAT LIVER S-9, AROCLOR 1254 (10%), Method: PREINCUBATION): inactive; negative; mutagenic call (Test System: AMES SALMONELLA TYPHIMURIUM, Strain/Indicator: TA100, Metabolic Activation: RAT, LIVER, S-9, AROCLOR 1254, Method: FLUCTUATION): active; positive; mutagenic call (Test System: AMES SALMONELLA TYPHIMURIUM, Strain/Indicator: TA100, Metabolic Activation: RAT, LIVER, S-9, AROCLOR 1254, Method: STANDARD PLATE): inactive; negative; mutagenic call (Test System: AMES SALMONELLA TYPHIMURIUM, Strain/Indicator: TA100, Metabolic Activation: S-9, Method: STANDARD PLATE): inactive; negative; mutagenic call (Test System: AMES SALMONELLA TYPHIMURIUM, Strain/Indicator: TA102, Metabolic Activation: NONE, Method: STANDARD PLATE): inactive; negative; mutagenic call (Test System: AMES SALMONELLA TYPHIMURIUM, Strain/Indicator: TA102, Metabolic Activation: S-9, Method: STANDARD PLATE): inactive; negative; mutagenic call (Test System: AMES SALMONELLA TYPHIMURIUM, Strain/Indicator: TA1530, Metabolic Activation: RAT, LIVER, S-9, 3-METHYLCHOLANTHRENE OR PCB OR PHENOBARBITAL, Method: FLUCTUATION): active; positive; mutagenic call (Test System: AMES SALMONELLA TYPHIMURIUM, Strain/Indicator: TA1530, Metabolic Activation: RAT, LIVER, S-9, PCB OR PHENOBARBITAL, Method: DESICCATOR): active; positive
